# Reference: patent US20150299648A1, “IMPROVED CULTIVATION MEDIA AND PROCESS FOR IMPROVED PROTEIN PRODUCTION BY PICHIA STRAINS” (priority 2012, published 2015)
# “Also recorded” adds a separate entry of the source.
# System: not listed separately
# Assay: Osmolality of sugar and sugar alcohol solutions (osmometer)
# Type: physicochemical
# Details: 500 mM in water
# Experimental: The sugar and sugar alcohol solutions used as osmoprotectant supplements were prepared at 500 mM in water and their osmolalities were measured using Osmometer (Multi-somotte, Model 2430, Precision Systems Inc, MA, USA). The osmolality of solution was directly proportional to the concentration of component in solution. For instance there was a linear relationship between sorbitol concentration (mM) and osmolality of the solution (mOsm/kg) as shown in FIG. 1A. The osmolalities of maltitol, sorbitol, glycerol, and glucose at 500 mM in water were 590±4, 544±3, 541±3, and 568±0 mOsm/kg respectively (FIG. 1B). The osmolaties of sorbose, mellibiose, ribose, quinic acid and myo-inositol at 500 Mm in water were (480±5), (500±5), (470±5), (480±5) AND (510±10), respectively.
row,Compound,Osmolality of solution
1,O=C[C@H](O)[C@@H](O)[C@H](O)[C@H](O)CO [D-Glucose],568±0 mOsm/kg
2,OC[C@H]1O[C@H](OCC2O[C@@H](O)[C@H](O)[C@@H](O)[C@@H]2O)[C@H](O)[C@@H](O)[C@H]1O (stereo partly drawn) [D-Melibiose],500±5 mOsm/kg
3,O=C(O)[C@]1(O)C[C@@H](O)[C@@H](O)[C@H](O)C1 [D-Quinic acid],480±5 mOsm/kg
4,O=C[C@H](O)[C@H](O)[C@H](O)CO [D-Ribose],470±5 mOsm/kg
5,OC[C@@H](O)[C@@H](O)[C@H](O)[C@@H](O)CO [D-Sorbitol],544±3 mOsm/kg
6,OCC(O)CO [Glycerol],541±3 mOsm/kg
7,O=C(CO)[C@@H](O)[C@H](O)[C@@H](O)CO [L-Sorbose],480±5 mOsm/kg
8,O[C@H]1[C@H](O)[C@@H](O)[C@H](O)[C@@H](O)[C@H]1O [myo-Inositol],510±10 mOsm/kg

# System: P. pastrois strain yGLY21058
# Assay: Fermentability of sugars or sugar alcohols on M agar plate
# Type: cell-based, Pichia pastoris
# Details: minimal agar plate, 6 days at 30° C.
# Experimental: The 1 mL of RCB (Research Cell Bank in 20% of glycerol) for P. pastrois strain yGLY21058 producing glycosylated insulin precursor (GIP) was inoculated in 200 mL of Seed medium (4% glycerol, 1% yeast extract, 2% soytone, 1.34% YNB without amino acids, 0.23% K2HPO4, 1.19% KH2PO4, 8 μg/L biotin) and cultivated for 48 h at 24° C. The cell pellet was harvested by centrifugation at 4,000 rpm for 10 min and re-suspended with PBS buffer (pH 7.4) to wash the cell twice. The 0.1 mL of cell suspension with wash buffer was transferred and spread onto the minimal agar plate containing each sugar or sugar alcohol (1% w/v), which is listed in Table 1.
# YPD (1% yeast extract, 2% yeast peptone, and 1% glucose) agar plate was used for the positive control and a minimal agar plate without carbon sources (M) was used for negative control. Growth of Pichia pastoris on M agar plate containing single carbon source was categorized as no (−), slow (+), moderate (++), and fast (+++) colony formation for 6 days in Table 1.
row,Compound,Fermentability category from colony formation on the plate
1,O=C[C@@H](O)[C@H](O)[C@H](O)CO [D-Arabinose],strict non-fermentable substrates
2,O=C(O)[C@H](O)[C@@H](O)[C@H](O)[C@H](O)CO [D-Gluconate],very slow colony formation
3,"O=C1O[C@H](CO)[C@@H](O)[C@H](O)[C@H]1O [D-Glucono-1,5-lactone]",strict non-fermentable substrates
4,OC[C@H]1O[C@H](O[C@H]2[C@H](O)[C@@H](O)[C@H](O)O[C@@H]2CO)[C@H](O)[C@@H](O)[C@@H]1O [D-Maltose],strict non-fermentable substrates
5,OC[C@H]1O[C@H](OCC2O[C@@H](O)[C@H](O)[C@@H](O)[C@@H]2O)[C@H](O)[C@@H](O)[C@H]1O (stereo partly drawn) [D-Melibiose],very slow colony formation
6,O=C(O)[C@]1(O)C[C@@H](O)[C@@H](O)[C@H](O)C1 [D-Quinic acid],strict non-fermentable substrates
7,OC[C@@H](O)[C@@H](O)[C@@H](O)CO [D-Ribitol],strict non-fermentable substrates
8,O=C[C@H](O)[C@H](O)[C@H](O)CO [D-Ribose],very slow colony formation
9,O=C[C@H](O)[C@@H](O)[C@H](O)CO [D-Xylose],very slow colony formation
10,OC[C@H](O)C(O)[C@@H](O)CO [L-Arabitol],strict non-fermentable substrates
11,O=C(CO)[C@@H](O)[C@H](O)[C@@H](O)CO [L-Sorbose],very slow colony formation
12,OC[C@@H](O)[C@H](O)[C@@H](O)CO [Xylitol],strict non-fermentable substrates
13,O[C@H]1[C@H](O)[C@@H](O)[C@H](O)[C@@H](O)[C@H]1O [myo-Inositol],very slow colony formation
14,Inulin,very slow colony formation

# Same assay, conditions: single carbon source 1% w/v, 6 days at 30° C.
row,Compound,Growth on M agar
1,O=C[C@@H](O)[C@H](O)[C@H](O)CO [D-Arabinose],−
2,O=C(O)[C@H](O)[C@@H](O)[C@H](O)[C@H](O)CO [D-Gluconate],+
3,"O=C1O[C@H](CO)[C@@H](O)[C@H](O)[C@H]1O [D-Glucono-1,5-lactone]",−
4,O=C[C@H](O)[C@@H](O)[C@H](O)[C@H](O)CO [D-Glucose],+++
5,OC[C@H]1O[C@H](O[C@H]2[C@H](O)[C@@H](O)[C@H](O)O[C@@H]2CO)[C@H](O)[C@@H](O)[C@@H]1O [D-Maltose],−
6,OC[C@H]1O[C@H](OCC2O[C@@H](O)[C@H](O)[C@@H](O)[C@@H]2O)[C@H](O)[C@@H](O)[C@H]1O (stereo partly drawn) [D-Melibiose],+
7,O=C(O)[C@]1(O)C[C@@H](O)[C@@H](O)[C@H](O)C1 [D-Quinic acid],−
8,OC[C@H]1O[C@H](OC[C@H]2O[C@H](O[C@]3(CO)O[C@H](CO)[C@@H](O)[C@@H]3O)[C@H](O)[C@@H](O)[C@@H]2O)[C@H](O)[C@@H](O)[C@H]1O [D-Raffinose],++
9,OC[C@@H](O)[C@@H](O)[C@@H](O)CO [D-Ribitol],−
10,O=C[C@H](O)[C@H](O)[C@H](O)CO [D-Ribose],+
11,OC[C@@H](O)[C@@H](O)[C@H](O)[C@@H](O)CO [D-Sorbitol],+++
12,O=C[C@H](O)[C@@H](O)[C@H](O)CO [D-Xylose],+
13,OCC(O)CO [Glycerol],+++
14,OC[C@H](O)C(O)[C@@H](O)CO [L-Arabitol],−
15,O=C(CO)[C@@H](O)[C@H](O)[C@@H](O)CO [L-Sorbose],+
16,OC[C@@H](O)[C@H](O)[C@@H](O)CO [Xylitol],−
17,O[C@H]1[C@H](O)[C@@H](O)[C@H](O)[C@@H](O)[C@H]1O [myo-Inositol],+
18,"OC[C@H]1O[C@H](O[C@H]2O[C@H](CO)[C@@H](O)[C@H](O)[C@H]2O)[C@H](O)[C@@H](O)[C@@H]1O [α,α-Trehalose]",++
19,Inulin,+

# System: P. pastoris YGLY21058 strain producing glycosylated insulin precursor (GIP)
# Assay: Screening of sugars and sugar alcohols as osmoprotectants in fed-batch cultivation
# Type: cell-based, Pichia pastoris
# Details: 50 g/L in initial batch BSGY; 80 h of induction
# Experimental: The P. pastoris YGLY21058 strain was cultivated in 1 L glass bioreactors (DASGIP, Germany). For fermentation in 1 L bioreactor, a vial (1 mL) of RCB (Research Cell Bank) was inoculated into 200 mL of Seed medium in 1 L-baffled flask. The culture incubated at 24° C., while shaking on an orbital shaker at 180 rpm for 48±4 h. The bioreactor was inoculated with a 10% volumetric ratio of seed to initial BSGY medium. Cultivation conditions were following: temperature set at 24±0.5° C., pH controlled at 6.5±0.1 with 30% ammonium hydroxide, dissolved oxygen was maintained at 20% of saturation by cascading agitation rate on the addition of pure oxygen to the fixed airflow rate of 0.7 vvm. After depletion of the initial glycerol (4%), a 50% glycerol solution containing 12.5 mL/L of PTM1 salts (6.5 g FeSO4.7H2O, 2.0 g ZnCl2, 0.6 g CuSO4.5H2O, 3.0 g MnSO4.7H2O, 0.5 g CoCl2.6H2O, 0.2 g NaMoO4.2H2O, 0.2 g biotin, 80 mg NaI, 20 mg H3BO4 per L) was fed constantly at an initial rate of 0.08 h^−1 for 8 h. Induction was initiated after a 30 min starvation phase when methanol was fed. Methanol was fed constantly starting at 1.33 g/L/h under methanol limited condition. Agitation speed was changed from cascade mode with agitation speed and pure oxygen.
# For comparisons, each sugar or sugar alcohol was added at 50 g/L in initial batch medium of BSGY. In case of control without sugar supplementation (BSGY medium only), glycosylated insulin precursor (GIP) was detectable at 58 h of induction, but not detected at 80 h of induction due to most likely proteolytic degradation caused by heavy cell lysis (Lanes 1 and 2 of FIG. 2 A).
row,Compound,Index of cell lysis (double stranded DNA released into culture medium)
1,O=C[C@@H](O)[C@H](O)[C@H](O)CO [D-Arabinose],much lower than that of control
2,O=C[C@H](O)[C@H](O)[C@H](O)CO [D-Ribose],much lower than that of control
3,O[C@H]1[C@H](O)[C@@H](O)[C@H](O)[C@@H](O)[C@H]1O [myo-Inositol],much lower than that of control

# Same assay, conditions: 50 g/L in initial batch medium of BSGY
row,Compound,Intact GIP molecule after 80 h-induction (SDS-PAGE)
1,O=C[C@@H](O)[C@H](O)[C@H](O)CO [D-Arabinose],intact GIP molecule was maintained
2,OC[C@H]1O[C@H](OCC2O[C@@H](O)[C@H](O)[C@@H](O)[C@@H]2O)[C@H](O)[C@@H](O)[C@H]1O (stereo partly drawn) [D-Melibiose],intact GIP molecule was maintained
3,O=C[C@H](O)[C@H](O)[C@H](O)CO [D-Ribose],intact GIP molecule was maintained
4,O=C(CO)[C@@H](O)[C@H](O)[C@@H](O)CO [L-Sorbose],intact GIP molecule was maintained
5,O[C@H]1[C@H](O)[C@@H](O)[C@H](O)[C@@H](O)[C@H]1O [myo-Inositol],intact GIP molecule was maintained

# Same assay, conditions: methanol induction phase of cultivation
row,Compound,Robustness of Pichia production strains
1,OC[C@H]1O[C@H](O[C@H]2[C@H](O)[C@@H](O)[C@H](O)O[C@@H]2CO)[C@H](O)[C@@H](O)[C@@H]1O [D-Maltose],significantly improved the robustness

# System: P. pastoris YGLY 21058 strain
# Assay: Fermentability of sorbitol and maltitol determined by HPLC
# Type: cell-based, Pichia pastoris
# Details: BSGY; maltitol 50 g/L; methanol induction phase
# Experimental: The P. pastoris YGLY 21058 strain was cultivated in 1 L bioreactor and 50 g/L of maltitol was mixed in BSGY medium. The samples were taken at the beginning of fermentation, at the end of glycerol fed-batch before adding maltitol, and two different time-points in methanol induction phase, as shown in FIG. 3. The supernatant was separated by the centrifugation at 13,000 rpm for 1 minutes using micro-centrifuge. The samples properly diluted with distilled water were filtered using 0.2 μm-filter and the residual concentrations of sorbitol and maltitol were determined by HPLC using AMINEX HPX-87H column. The residence times (RTs) for sorbitol and maltitol were 11.5 and 9.3 min respectively. The data were shown in FIG. 3 as two independent runs of cultivation.
row,Compound,Consumption / fermentability in fed-batch fermentation (residual concentration by HPLC)
1,OC[C@@H](O)[C@@H](O)[C@H](O)[C@@H](O)CO [D-Sorbitol],actively metabolized; also recorded: highly fermentable
